Assays:
[1] = target: Nitric oxide synthase, endothelial (Homo sapiens, UniProt P29474)
[2] = target: Interleukin-1 receptor (Mus musculus)
Caspase-3 = Caspase-3 (Homo sapiens, UniProt P42574)
Mu-type opioid receptor = Mu-type opioid receptor (Rattus norvegicus, UniProt P33535)
Substance-P receptor = Substance-P receptor (Homo sapiens, UniProt P25103)
Adenosine receptor A2a = Adenosine receptor A2a (Rattus norvegicus, UniProt P30543)
[3] = target: 5-hydroxytryptamine receptor 2A (Rattus norvegicus, UniProt P14842)
[4] = target: Angiotensin-converting enzyme (Homo sapiens, UniProt P12821)
Angiotensin-converting enzyme, sequence (P12821 whole entry): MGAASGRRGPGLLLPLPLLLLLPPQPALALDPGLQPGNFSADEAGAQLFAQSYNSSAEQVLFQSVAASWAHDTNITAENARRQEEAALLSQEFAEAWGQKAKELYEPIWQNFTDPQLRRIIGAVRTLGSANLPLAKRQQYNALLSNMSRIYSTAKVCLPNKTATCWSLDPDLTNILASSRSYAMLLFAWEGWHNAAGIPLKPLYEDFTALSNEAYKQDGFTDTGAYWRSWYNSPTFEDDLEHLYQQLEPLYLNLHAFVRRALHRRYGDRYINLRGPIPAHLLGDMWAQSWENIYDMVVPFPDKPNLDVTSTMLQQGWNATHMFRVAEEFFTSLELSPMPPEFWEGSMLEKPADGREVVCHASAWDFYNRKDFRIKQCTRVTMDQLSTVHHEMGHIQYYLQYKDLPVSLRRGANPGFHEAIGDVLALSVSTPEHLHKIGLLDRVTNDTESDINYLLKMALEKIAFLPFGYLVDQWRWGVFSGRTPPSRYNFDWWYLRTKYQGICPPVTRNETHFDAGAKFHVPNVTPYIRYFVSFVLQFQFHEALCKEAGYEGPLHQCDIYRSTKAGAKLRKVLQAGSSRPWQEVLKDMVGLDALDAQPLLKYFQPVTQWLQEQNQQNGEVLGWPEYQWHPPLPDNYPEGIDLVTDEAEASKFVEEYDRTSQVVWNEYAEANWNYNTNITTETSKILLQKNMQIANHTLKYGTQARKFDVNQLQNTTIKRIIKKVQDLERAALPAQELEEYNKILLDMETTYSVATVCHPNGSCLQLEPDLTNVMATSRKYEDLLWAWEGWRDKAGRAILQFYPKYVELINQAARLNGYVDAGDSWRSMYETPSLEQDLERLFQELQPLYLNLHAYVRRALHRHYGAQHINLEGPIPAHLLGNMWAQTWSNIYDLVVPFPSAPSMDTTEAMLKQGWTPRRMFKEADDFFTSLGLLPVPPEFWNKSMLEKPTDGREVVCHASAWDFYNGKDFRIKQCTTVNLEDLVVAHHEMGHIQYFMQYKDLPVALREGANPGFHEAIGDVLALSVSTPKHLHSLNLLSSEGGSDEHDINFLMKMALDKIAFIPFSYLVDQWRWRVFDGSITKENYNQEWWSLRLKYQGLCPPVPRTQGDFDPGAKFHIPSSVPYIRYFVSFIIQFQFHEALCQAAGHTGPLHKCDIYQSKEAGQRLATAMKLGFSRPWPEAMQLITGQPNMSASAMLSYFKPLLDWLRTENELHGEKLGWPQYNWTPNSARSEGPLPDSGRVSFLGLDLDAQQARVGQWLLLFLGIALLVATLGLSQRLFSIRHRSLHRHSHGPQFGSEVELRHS

Histamine H1 receptor = Histamine H1 receptor (Cavia porcellus, UniProt P31389)
Histamine H1 receptor, sequence (P31389 whole entry): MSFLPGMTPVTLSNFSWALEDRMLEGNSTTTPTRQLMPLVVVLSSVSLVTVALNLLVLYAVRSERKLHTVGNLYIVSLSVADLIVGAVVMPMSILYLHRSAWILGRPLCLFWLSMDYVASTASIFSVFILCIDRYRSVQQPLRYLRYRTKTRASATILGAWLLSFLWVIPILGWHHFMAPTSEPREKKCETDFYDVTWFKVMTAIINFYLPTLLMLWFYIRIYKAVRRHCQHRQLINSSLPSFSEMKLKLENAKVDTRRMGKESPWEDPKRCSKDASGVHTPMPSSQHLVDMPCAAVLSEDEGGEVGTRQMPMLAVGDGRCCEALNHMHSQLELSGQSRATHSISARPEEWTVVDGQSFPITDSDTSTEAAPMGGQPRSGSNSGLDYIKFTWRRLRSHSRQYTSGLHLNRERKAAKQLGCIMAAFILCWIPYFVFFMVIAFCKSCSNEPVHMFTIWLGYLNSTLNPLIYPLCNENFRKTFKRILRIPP

[5] = target: Gamma-aminobutyric acid (GABA) B receptor 1 (Rattus norvegicus, UniProt Q6MFX8)
[6] = target: Corticotropin-releasing factor receptor 1 (Rattus norvegicus, UniProt P35353)
D(2) dopamine receptor = D(2) dopamine receptor (Rattus norvegicus, UniProt P61169)
[7] = target: Beta-1 adrenergic receptor (Rattus norvegicus, UniProt P18090)
Adenosine receptor A1 = Adenosine receptor A1 (Rattus norvegicus, UniProt P25099)
Adenosine receptor A1, sequence (P25099 whole entry): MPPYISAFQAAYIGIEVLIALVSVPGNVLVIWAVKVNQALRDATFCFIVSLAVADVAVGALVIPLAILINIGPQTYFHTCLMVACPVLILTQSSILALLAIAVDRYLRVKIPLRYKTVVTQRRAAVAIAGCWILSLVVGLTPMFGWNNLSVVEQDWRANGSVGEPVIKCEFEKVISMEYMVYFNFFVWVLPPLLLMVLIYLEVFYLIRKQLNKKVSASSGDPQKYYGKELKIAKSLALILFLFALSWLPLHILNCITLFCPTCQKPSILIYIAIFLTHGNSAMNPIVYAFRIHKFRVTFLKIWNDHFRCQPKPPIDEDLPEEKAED

[8] = target: 5-hydroxytryptamine receptor 1B (Rattus norvegicus, UniProt P28564)
5-hydroxytryptamine receptor 1B, sequence (P28564 whole entry): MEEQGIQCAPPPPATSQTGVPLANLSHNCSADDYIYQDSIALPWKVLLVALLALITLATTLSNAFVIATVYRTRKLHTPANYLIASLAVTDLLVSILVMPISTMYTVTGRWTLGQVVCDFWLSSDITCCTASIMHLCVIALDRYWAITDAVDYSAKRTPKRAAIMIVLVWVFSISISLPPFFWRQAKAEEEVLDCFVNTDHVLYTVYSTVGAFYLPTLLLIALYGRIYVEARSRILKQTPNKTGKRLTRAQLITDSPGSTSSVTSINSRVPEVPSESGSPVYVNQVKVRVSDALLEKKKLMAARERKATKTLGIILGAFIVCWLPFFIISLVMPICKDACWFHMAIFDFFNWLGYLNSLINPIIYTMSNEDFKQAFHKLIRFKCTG

[9] = target: Prostaglandin G/H synthase 2 (Ovis aries, UniProt P79208)
[10] = target: cAMP-specific 3',5'-cyclic phosphodiesterase 4D (Homo sapiens, UniProt Q08499)
cAMP-specific 3',5'-cyclic phosphodiesterase 4D, sequence (Q08499 whole entry): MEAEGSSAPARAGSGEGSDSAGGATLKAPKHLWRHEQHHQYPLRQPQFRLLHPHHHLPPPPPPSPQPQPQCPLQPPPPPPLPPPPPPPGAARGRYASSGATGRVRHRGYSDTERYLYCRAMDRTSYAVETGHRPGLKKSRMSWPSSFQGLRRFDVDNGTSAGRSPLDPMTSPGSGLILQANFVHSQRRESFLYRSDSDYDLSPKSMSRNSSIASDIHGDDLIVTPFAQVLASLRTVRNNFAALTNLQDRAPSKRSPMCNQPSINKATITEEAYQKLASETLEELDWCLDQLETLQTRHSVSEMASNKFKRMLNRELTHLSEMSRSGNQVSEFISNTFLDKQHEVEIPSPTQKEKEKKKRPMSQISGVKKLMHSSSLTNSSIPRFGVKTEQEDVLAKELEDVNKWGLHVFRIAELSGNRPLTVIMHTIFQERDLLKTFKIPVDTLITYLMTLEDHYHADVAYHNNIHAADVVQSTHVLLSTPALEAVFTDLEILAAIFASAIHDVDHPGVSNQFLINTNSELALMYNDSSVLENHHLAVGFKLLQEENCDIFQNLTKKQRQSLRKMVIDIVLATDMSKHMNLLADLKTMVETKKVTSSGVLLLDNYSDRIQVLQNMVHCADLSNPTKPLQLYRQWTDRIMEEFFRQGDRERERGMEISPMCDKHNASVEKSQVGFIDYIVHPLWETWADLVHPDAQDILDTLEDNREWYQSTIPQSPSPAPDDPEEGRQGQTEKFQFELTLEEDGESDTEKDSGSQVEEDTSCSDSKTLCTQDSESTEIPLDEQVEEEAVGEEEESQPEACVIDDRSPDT

[11] = target: Gamma-aminobutyric acid receptor subunit alpha-1 (Rattus norvegicus, UniProt P62813)
[12] = target: PDGF receptor (Mus musculus)
[13] = target: Type-1 angiotensin II receptor A (Rattus norvegicus, UniProt P25095)
[14] = target: Type-2 angiotensin II receptor (Bos taurus, UniProt G5E6F7)
Type-2 angiotensin II receptor, sequence (G5E6F7 whole entry): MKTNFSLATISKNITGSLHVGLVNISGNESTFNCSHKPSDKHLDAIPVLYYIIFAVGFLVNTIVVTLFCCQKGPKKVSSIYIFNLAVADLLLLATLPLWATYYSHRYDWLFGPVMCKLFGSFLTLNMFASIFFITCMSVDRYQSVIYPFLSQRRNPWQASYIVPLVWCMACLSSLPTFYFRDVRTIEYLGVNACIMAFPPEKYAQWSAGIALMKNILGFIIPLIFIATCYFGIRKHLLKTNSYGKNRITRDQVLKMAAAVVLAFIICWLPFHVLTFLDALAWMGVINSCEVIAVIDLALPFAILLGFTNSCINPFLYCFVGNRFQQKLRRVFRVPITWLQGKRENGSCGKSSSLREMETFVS

B2 bradykinin receptor = B2 bradykinin receptor (Homo sapiens, UniProt P30411)
[15] = target: Muscarinic acetylcholine receptor M2 (Rattus norvegicus, UniProt P10980)
Muscarinic acetylcholine receptor M2, sequence (P10980 whole entry): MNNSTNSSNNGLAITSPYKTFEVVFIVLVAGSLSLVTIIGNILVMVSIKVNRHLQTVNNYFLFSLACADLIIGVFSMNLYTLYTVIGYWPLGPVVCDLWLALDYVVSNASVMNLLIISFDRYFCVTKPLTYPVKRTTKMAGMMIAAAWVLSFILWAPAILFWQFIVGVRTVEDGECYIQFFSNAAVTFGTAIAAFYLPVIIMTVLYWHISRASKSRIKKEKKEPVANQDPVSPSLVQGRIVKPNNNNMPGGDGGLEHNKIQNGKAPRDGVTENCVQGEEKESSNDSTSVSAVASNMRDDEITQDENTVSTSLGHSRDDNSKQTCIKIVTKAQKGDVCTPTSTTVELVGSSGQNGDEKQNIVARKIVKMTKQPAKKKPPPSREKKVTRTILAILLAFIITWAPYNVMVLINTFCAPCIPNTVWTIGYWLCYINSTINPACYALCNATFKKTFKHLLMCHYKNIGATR

[16] = target: Neuronal acetylcholine receptor subunit alpha-9 (Rattus norvegicus, UniProt P43144)
[17] = target: Prostaglandin G/H synthase 1 (Rattus norvegicus, UniProt Q63921)
D(1A) dopamine receptor = D(1A) dopamine receptor (Rattus norvegicus, UniProt P18901)
Glucocorticoid receptor = Glucocorticoid receptor (Mus musculus, UniProt P06537)
[18] = target: Glutamate receptor ionotropic, NMDA 1 (Rattus norvegicus, UniProt P35439)
[19] = target: Sigma non-opioid intracellular receptor 1 (Rattus norvegicus, UniProt Q9R0C9)
[20] = target: Dual specificity calcium/calmodulin-dependent 3',5'-cyclic nucleotide phosphodiesterase 1A (Bos taurus, UniProt P14100)
Phosphodiesterase 3a = Phosphodiesterase 3a (Cavia porcellus, UniProt C7DXW3)
[21] = target: Vasoactive intestinal polypeptide receptor 1 (Homo sapiens, UniProt P32241)
[22] = target: L-type calcium channel (Rattus norvegicus)
[23] = target: Cholecystokinin receptor type A (Homo sapiens) (UniProt P32238)
[24] = target: Platelet-activating factor receptor (Oryctolagus cuniculus)
[25] = target: Endothelin-1 receptor (Rattus norvegicus) (UniProt P26684)
[26] = target: Insulin receptor (Rattus norvegicus) (UniProt P15127)
[27] = target: Phosphodiesterase 5A (Homo sapiens)
[28] = target: Tumor necrosis factor receptor (Homo sapiens)

Adenosine receptor A2a, sequence (P30543 whole entry): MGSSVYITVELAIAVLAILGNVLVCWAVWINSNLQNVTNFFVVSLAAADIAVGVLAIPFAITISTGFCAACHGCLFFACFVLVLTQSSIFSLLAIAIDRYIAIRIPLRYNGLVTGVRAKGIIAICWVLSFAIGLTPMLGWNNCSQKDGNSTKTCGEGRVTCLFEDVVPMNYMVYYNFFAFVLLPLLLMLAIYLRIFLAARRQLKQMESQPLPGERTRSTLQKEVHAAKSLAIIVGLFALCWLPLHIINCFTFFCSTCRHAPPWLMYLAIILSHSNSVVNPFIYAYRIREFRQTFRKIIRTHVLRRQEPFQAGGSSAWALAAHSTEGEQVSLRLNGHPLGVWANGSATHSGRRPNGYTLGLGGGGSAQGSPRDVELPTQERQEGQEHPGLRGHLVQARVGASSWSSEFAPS
Caspase-3, sequence (P42574 29-175 limits assumed): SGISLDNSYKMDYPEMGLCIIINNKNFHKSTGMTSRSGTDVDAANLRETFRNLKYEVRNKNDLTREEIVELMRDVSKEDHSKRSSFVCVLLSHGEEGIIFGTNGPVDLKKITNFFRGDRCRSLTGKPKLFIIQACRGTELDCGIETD
Caspase-3, sequence (P42574 176-277 limits assumed): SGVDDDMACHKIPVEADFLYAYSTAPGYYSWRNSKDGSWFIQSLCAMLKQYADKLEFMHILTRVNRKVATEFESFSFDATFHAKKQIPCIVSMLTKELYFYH

Ki [1]: > 10 µM | Ki [2]: > 10 µM | Ki (Caspase-3): > 10 µM | Ki (Mu-type opioid receptor): > 10 µM | Ki (Substance-P receptor): > 10 µM | Ki (Adenosine receptor A2a): > 10 µM | Ki [3]: > 10 µM | Ki [4]: > 10 µM | Ki (Histamine H1 receptor): > 10 µM | Ki [5]: > 10 µM | Ki [6]: > 10 µM | Ki (D(2) dopamine receptor): > 10 µM | Ki [7]: > 10 µM | Ki (Adenosine receptor A1): > 10 µM | Ki [8]: > 10 µM | Ki [9]: > 10 µM | Ki [10]: > 10 µM | Ki [11]: > 10 µM | Ki [12]: > 10 µM | Ki [13]: > 10 µM | Ki [14]: > 10 µM | Ki (B2 bradykinin receptor): > 10 µM | Ki [15]: > 10 µM | Ki [16]: > 10 µM | Ki [17]: > 10 µM | Ki (D(1A) dopamine receptor): > 10 µM | Ki (Glucocorticoid receptor): > 10 µM | Ki [18]: > 10 µM | Ki [19]: > 10 µM | Ki [20]: > 10 µM | Ki (Phosphodiesterase 3a): > 10 µM | Ki [21]: > 10 µM | Ki [22]: > 10 µM | Ki [23]: > 10 µM | Ki [24]: > 10 µM | Ki [25]: > 10 µM | Ki [26]: > 10 µM | Ki [27]: > 10 µM
SMILES: O/N=C/Nc1ccc(N2CCOCC2)c(Cl)c1 [N'-(3-Chloro-4-morpholinophenyl)-N-hydroxyformamidine]
Ki [28]: > 10 µM

Reference: BindingDB's records for doi:10.1124/jpet.105.083964 (Taisho Pharmaceutical, 2005)
